Source: patent publication US6893659B2, “Pharmaceutical composition for oral administration of a N-piperidino-3- pyrazolecarboxamide derivative, its salts and their solvates” (Sanoti-Synthelabo, priority 1997, dated 2005)
In brackets after ≈: the same amount, converted by molar mass. Counter-ions that a name gives are not always drawn.

Assays:
[1] = Instantaneous solubility of the compounds of formula (I) in aqueous media; assay type: physicochemical; conditions: for Solubility, dissolution medium Acetic buffer pH 7.5 / Solubility, dissolution medium Phosphate buffer pH 7.5 / Solubility, dissolution medium Water / Solubility, dissolution medium Water + 10% ethanol: instantaneous solubility, room temperature
Protocol: (§1) Furthermore, the hydrophobic character of the compounds of formula (I) is very strongly pronounced. […] These compounds are soluble in alcohols and glycols and more particularly in polyethylene glycols (PEG).
The solubilities of the compounds of formula (I) are measured in different aqueous media. The instantaneous solubility is evaluated at room temperature by quantitative analysis. The results, expressed in μg per ml, are collated in Table 1 below: […]

[2] = test system: Caco-2 cells; assay: Intestinal transepithelial passage across Caco-2 monolayer; assay type: in vitro ADME
Protocol: (§2) The permeability of the epithelium of the compounds is evaluated using the Caco-2 cell line, which has the characteristic of undergoing differentiation in vitro to form an epithelial monolayer (Crit. Rev. Ther. Drug Carrier System, 1991, 8 (4), 105-330). In this model the permeability of compound A dissolved in dimethyl sulfoxide (DMSO) is high, showing that it has a good ability to be absorbed by the intestine when it is in solution.
(§3) Caco-2 cells are cultured onto microporous polycarbonate filters covered with collagen. The cellular monolayer formed on the filter then makes it possible to separate an apical compartment (imitating the intestinal lumen) from a basal compartment (imitating the blood circulation).
(§4) The composition containing the compound to be studied is placed on the apical side and the passage of this compound, dispersed or solubilized in Hank's medium, through this cellular barrier is evaluated by measuring the kinetics of its appearance on the basal side. This aqueous medium, of pH 6.5, has the following composition: NaCl=8.0 g/l; KCl=0.4 g/l; CaCl2=0.19 g/l; MgCl2=0.1 g/l; MgSO4=0.1 g/l; Na2HPO4=0.09 g/l; KH2PO4=0.06 g/l; NaHCO3=0.35 g/l; glucose=1 g/l; phenol red=0.01 g/l.
(§5) The coefficient of permeability P, in cm/s, is then determined; this characterizes the rate of passage of the molecule through the membrane, namely: P=(da/dt).(1/A.Co) • where: • da/dt=variation of the amount of test compound passing through the cellular monolayer as a function of time (mol/s) • A=surface area of the monolayer (cm^2) • Co=initial concentration of the test compound (mol/l)

[3] = as above; assay type: in vitro ADME; conditions: human, Caco-2; introduced in Hank's medium pH 6.5, in solution in DMSO; apical to basal; read-out: Coefficient of permeability P
Protocol: as §2, §3, §4, §5

[4] = Wettability by H. Mohamad's method; assay type: physicochemical
Source text: as §1
The wettability of compound A was studied in different formulations using the method of H. Mohamad et al., Labo Pharma. Problèmes techniques, 1984, 32 (346), 284-289.

[5] = Kinetics of dissolution in a gastric medium; assay type: physicochemical; conditions: 40 mg in one liter, phosphate-citrate buffer pH 3, 37° C., no surfactant
Protocol: The kinetics of dissolution of different formulations in a gastric medium were studied at 37° C. in a phosphate-citrate buffer of pH 3 for 30 minutes. […]
6 tests were carried out for each formulation and the amount of compound A dissolved in the medium was measured every 5 minutes.
Table 7 indicates the mean value of the percentage of compound A dissolved and the standard deviation relative to this value for the different formulations described in Table 6.

[6] = Solubility of compound A in solvents and after dilution of the solutions in water; assay type: physicochemical; conditions: for solubility: organic solvent or mixture
Protocol: as §1
However, when the solutions obtained with an alcohol or a glycol are diluted in an aqueous medium, the compound of formula (I) precipitates because of its strongly hydrophobic character.
Measurements were also made of the solubility of compound A in different solvents (Table 2) and after dilution in water of the solutions formed (Table 3).

[7] = ethanol solution, dilution in water 10%
[8] = polyethylene glycol 400 solution, dilution in water 30%

Structure (SMILES) | Solubility, dissolution medium Acetic buffer pH 7.5 [1] [μg per ml] | Solubility, dissolution medium Phosphate buffer pH 7.5 [1] [μg per ml] | Solubility, dissolution medium Water ([1]; water) [μg per ml] | Solubility, dissolution medium Water + 10% ethanol [1] [μg per ml] | also measured
Cc1c(C(=O)NN2CCCCC2)nn(-c2ccc(Cl)cc2Cl)c1-c1ccc(Cl)cc1 [Hydrochloride (solvated)] | 54 | 0.5 | 37 | 10 | –
Cc1c(C(=O)NN2CCCCC2)nn(-c2ccc(Cl)cc2Cl)c1-c1ccc(Cl)cc1 [Hydrogensulfate] | 30 | 0.9 | 13 | 38 | –
Cc1c(C(=O)NN2CCCCC2)nn(-c2ccc(Cl)cc2Cl)c1-c1ccc(Cl)cc1 [Methanesulfonate (solvated)] | – | – | 39 | 48 | –
Cc1c(C(=O)NN2CCCCC2)nn(-c2ccc(Cl)cc2Cl)c1-c1ccc(Cl)cc1 [Paratoluenesulfonate] | 2.4 | 0.2 | 3.9 | 7.3 | –
Cc1c(C(=O)NN2CCCCC2)nn(-c2ccc(Cl)cc2Cl)c1-c1ccc(Cl)cc1 [compound A, N-Piperidino-5-(4-chlorophenyl)-1-(2,4-dichlorophenyl)-4-methylpyrazole-3-carboxamide] | – | – | – | – | Solubility, dissolution medium Water + 10% ethanol ([1]; listed as Compound A (base)): 1.2 μg per ml; Solubility in water (in words) ([1]; water, irrespective of the pH): practically insoluble; Relative rate of passage ([2]; Caco-2 monolayer, Hank's medium pH 6.5, relative to compound A in suspension in Hank's medium (=1)): 1; Permeability / ability to pass through the epithelium (in words) ([2]; compound dissolved in DMSO): very good ability and high; Papp A→B [3]: 9.6 ×10⁻⁶ cm/s; Wettability in water (in words) [4]: not wettable; Dissolution in the dissolution medium with nothing else added [5]: no dissolution takes place; Amount of compound A dissolved, measured [6, 7]: 1.2.10^−3 mg/ml; Amount of compound A dissolved, theoretical [6, 7]: 3.5 mg/mL; solubility ([6]; solvent Ethanol): 35 mg/mL (≈ 75.5 mM); solubility ([6]; solvent Polyethylene glycol 400): 50 mg/mL (≈ 108 mM); Amount of compound A dissolved, measured [6, 8]: 3 µg/mL; Amount of compound A dissolved, theoretical [6, 8]: 15 mg/mL; Dilution in water ([6]; solution in polyethylene glycol 1500 at 60° C.): not dilutable; Solubility of compound A ([6]; solvent Polyethylene glycol 1500 at 60° C.): 80 mg/g

Further lines, with some results ahead:

Solubility, dissolution medium Acetic buffer pH 7.5 [1] [μg per ml] | Solubility, dissolution medium Phosphate buffer pH 7.5 [1] [μg per ml] | Solubility, dissolution medium Water ([1]; water) [μg per ml] | Solubility, dissolution medium Water + 10% ethanol [1] [μg per ml] | Structure (SMILES) | also measured
0.9 | 0.7 | 1.3 | 7.5 | Cc1c(C(=O)NN2CCCCC2)nn(-c2ccc(Cl)cc2Cl)c1-c1ccc(Cl)cc1 [Phosphate] | –
1.2 | – | 0.7 | 0.9 | Cc1c(C(=O)NN2CCCCC2)nn(-c2ccc(Cl)cc2Cl)c1-c1ccc(Cl)cc1 [Solvated compound A] | –
